Results published in paper PMC8840081, “Phenylalanine-Based AMPA Receptor Antagonist as the Anticonvulsant Agent with Neuroprotective Activity—In Vitro and In Vivo Studies” (Molecules, 2022).

How the values were obtained:
[1] = ferric reducing antioxidant power (FRAP) assay; conditions: % of ascorbic acid activity; compounds and AA at 1 mM
Description: The total antioxidant potential of aryl-substituted phenylalanine derivatives was determined using FRAP assay. The FRAP reagent was prepared first by mixing acetate buffer (300 mM, pH 3.6), a solution of 10 mM TPTZ (2,4,6-tripyridyl-s-triazine, Sigma-Aldrich, Inc., St. Louis, MO, USA) in 40 mM HCl and 20 mM of iron (III) chloride hexahydrate (FeCl3 × 6H2O, Chempur, Piekary Śląskie, Poland) at 10:1:1 (v/v/v). The FRAP reagent (190 μL) and 1 mM of tested compound (10 μL) was added next to each well, mixed and incubated for 30 min. The absorbance was measured using a microplate reader EnSpire (PerkinElmer, Waltham, MA USA) at 593 nm. AA (1 mM, AMARA, Kraków, Poland) was used as the reference antioxidant. The results were expressed as % of ascorbic acid activity (%AAA). Analyses were performed in triplicate. • ORAC-FL

[2] = oxygen radical absorbance capacity fluorescent (ORAC-FL) assay; conditions: Trolox equivalent, calculated at 5 µM of compounds and Trolox
Description: The ORAC-FL was performed according to procedure described in the literature. The reagents used in this assay, TX, fluorescein and 2,2′-azobis(2-amidinopropane) dihydrochloride (AAPH), were purchased from Sigma-Aldrich, Inc., St. Louis, MO, USA. The prepared ORAC-FL reagent consisted of 0.3 μM of fluorescein and 100 µM of AAPH dissolved in PBS buffer. The compounds and the reference antioxidant TX were tested at the concentration 2.5 µM and the results were compared to the blank in which no antioxidant was present. The assays were performed in black 96-well plates. The fluorescence readings were taken by a microplate reader EnSpire (PerkinElmer, Waltham, MA, USA) every minute for a duration of 240 min. The excitation wavelength was 485 nm and the emission wavelength was 520 nm. The area under the fluorescence decay curve (AUC) was calculated next by GraphPad Prism™ software (version 5.01, San Diego, CA, USA). All measurements were performed in triplicate. The TX equivalent (TE) was calculated next using the following Equation (1):TE = [(AUCsample − AUCblank)/(AUCTX − AUCblank)] × [CTX/Csample](1)

[3] = tested on: IMR-32 neuroblastoma cells; experiment: cell viability, MTS assay; type: cell-based, human; conditions: IMR-32, 24 h incubation, 1–100 µM
Description: (§1) All cell culture protocols and assay conditions were applied as we reported previously. SH-SY5Y (ATCC® CRL-2266™) cell line was purchased from ATCC (Manassas, VA, USA). IMR-32 (ATCC® CCL-127™) cell line was kindly provided by the Department of Oncogenomics, Academisch Medisch Centrum, Amsterdam, Holland. Before each test SH-SY5Y or IMR-32 cells were seeded in 96-well plates with transparent bottom at a concentration of 2.5 × 10^4 cells/well in 100 μL of respective cell culture medium and cultured for 24 h to reach 70% confluence. • Cell Viability
(§2) The CellTiter 96® AQueous Non-Radioactive Cell Proliferation Assay was purchased from Promega (Madison, WI, USA). After 24 h of cells incubation with compound 1 or 8 in the concentrations range 1–100 µM the MTS-based labeling mixture was added to each well and cells were incubated under the same conditions for 2–3 h. The absorbance was measured using a microplate reader EnSpire (PerkinElmer, Waltham, MA, USA) at 490 nm. All measurements were performed in triplicate and results are shown as mean ± SD. • Lactate Dehydrogenase Test

[4] = tested on: SH-SY5Y neuroblastoma cells; experiment: cell viability, MTS assay; type: cell-based, human; conditions: 24 h incubation, 1–100 µM
Description: as §1, §2

[5] = tested on: IMR-32 neuroblastoma cells; experiment: neuroprotection against 6-OHDA-induced LDH release; type: cell-based, human; conditions: IMR-32, compound 50 µM, 1 h pretreatment, 200 µM 6-OHDA, 24 h
Description: as §1
(§3) CytoTox-ONE™ Homogeneous Membrane Integrity Assay, which based on the LDH release, was purchased from Promega (Madison, WI, USA). SH-SY5Y or IMR-32 cells were seeded in 96-well white plates with transparent bottom. For neuroprotective studies, the cells were preincubated first for 1 h with compound 1, 8 or reference antioxidants AA, TX (all at the concentration of 50 μM) and next the neurotoxin 6-OHDA (Sigma-Aldrich, Inc., St. Louis, MO, USA) was added at final concentration of 50 μM (SH-SY5Y assay) or 200 µM (IMR-32 assay). After 24 h of incubation, the CytoTox-ONE™ was added to each well and the cells were incubated next for 10 min at room temperature. The fluorescence was measured using a microplate reader EnSpire (PerkinElmer, Waltham, MA, USA) with an excitation wavelength of 560 nm and an emission wavelength of 590 nm. All measurements were performed in triplicate and results are shown as mean ± SD. The similar studies were also performed with SH-SY5Y cells injured by 100 μM of 6-OHDA (Figure S1, Supporting Materials). • ROS Assay

[6] = tested on: SH-SY5Y neuroblastoma cells; experiment: neuroprotection against 6-OHDA-induced LDH release; type: cell-based, human; conditions: compound 50 µM
Description: as §1, §3

SH-SY5Y cells = experiment: ROS assay (DCFH-DA), H2O2-induced ROS accumulation; type: cell-based, human; conditions: compound 50 µM, 500 µM H2O2, 3 h
Description: as §1
During this assay SH-SY5Y cells were preincubated first for 1 h with 250 μM solution of DCFH-DA (Sigma-Aldrich, Inc., St. Louis, MO, USA) in HBSS buffer. After DCFH-DA was removed, cells were washed with HBSS and incubated next for 1 h with 50 μM of compound 1 or 8. Next, the H2O2 was added at final concentration 500 μM. After 3 h of incubation, the fluorescence was measured using a microplate reader EnSpire (PerkinElmer, Waltham, MA, USA) with an excitation wavelength of 486 nm and emission wavelength of 530 nm. All measurements were performed in triplicate and results are shown as mean ± SD.

Human MAO-B = molecular target: T1, Human MAO-B (Homo sapiens, UniProt P27338); experiment: MAO-B inhibition, Amplex Red Monoamine Oxidase kit; type: biochemical; conditions: 1 µM compound; % of full inhibition (pargyline 10 µM)
T1 construct: purchased Merck KGaA (Darmstadt, Germany)
T1 sequence (P27338 1-520): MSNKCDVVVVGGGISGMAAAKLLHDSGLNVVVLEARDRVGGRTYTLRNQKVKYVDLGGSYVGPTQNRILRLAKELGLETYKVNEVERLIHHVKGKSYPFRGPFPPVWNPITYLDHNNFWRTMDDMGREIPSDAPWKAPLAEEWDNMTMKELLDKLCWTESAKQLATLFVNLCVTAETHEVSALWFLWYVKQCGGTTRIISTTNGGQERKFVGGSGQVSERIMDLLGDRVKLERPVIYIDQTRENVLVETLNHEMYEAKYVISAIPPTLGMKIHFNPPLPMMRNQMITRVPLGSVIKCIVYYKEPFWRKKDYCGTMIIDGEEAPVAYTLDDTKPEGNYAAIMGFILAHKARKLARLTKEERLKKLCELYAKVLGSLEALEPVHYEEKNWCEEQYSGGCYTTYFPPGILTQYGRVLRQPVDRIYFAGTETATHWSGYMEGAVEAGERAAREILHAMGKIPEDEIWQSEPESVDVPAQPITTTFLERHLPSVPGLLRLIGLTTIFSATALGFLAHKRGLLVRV
Description: Human MAO-B was purchased from Merck KGaA (Darmstadt, Germany). The activity of compound 1 and 8 was measured in the presence of p-tyramine (200 μM). […] Firstly, inhibitors’ activity was measured in a concentration of 1 μM. […] For compounds that inhibited the enzyme by more than 50% further studies were conducted to obtain IC50 from concentration–response curves. All calculations were made in Microsoft Excel and GraphPadPrism software. All experiments were performed in duplicate and data are expressed as mean ± SEM.

native AMPA receptors = conditions: native AMPA receptors, rat brain membranes, mean of three experiments, cited from earlier work

With Nc1c(Cl)cc(CC(N)C(=O)O)cc1-c1ccc(O)cc1 (centres unmarked) [Compound 8] as the compound, how does the “FRAP (%AAA)” value [1] read?
The value was 48.19 %AAA.

What about the “ORAC (TE)” value [2] of the same compound?
Its value is 7.56 TE.

What about the cell viability [3] of the same compound?
The cell viability was “no influence on cell viability”.

And the cell viability [4]?
Its cell viability is “no influence on cell viability”.

What about the “6-OHDA-induced release of LDH (neuroprotection)” value (“6-OHDA-induced release of LDH” below) [5] of the same compound?
Its value is “no statistically significant neuroprotective effect”.

What about the “6-OHDA-induced release of LDH” value ([6]; 100 µM 6-OHDA) of the same compound?
Its value is “neuroprotective effect was not observed”.

What about the “6-OHDA-induced release of LDH” value ([6]; 1 h pretreatment, 50 µM 6-OHDA, 24 h) of the same compound?
The value was “no statistically significant neuroprotective effect”.

What about the “intracellular ROS level” value (SH-SY5Y cells) of the same compound?
The value was “statistically significant decrease”.

And the “MAO-B inhibition, screening” value (Human MAO-B)?
The value was “No inhibitory activity”.

And the “[3H]AMPA Ki” value (native AMPA receptors)?
The value was “lack of detectable AMPA receptor affinity”.

And the Ki (native AMPA receptors; read-out: [3H]AMPA Ki)?
Its Ki is > 100 µM.
